Data on five molecules can be found in ChEMBL document CHEMBL1201862, “PubChem BioAssay data set” (2004).

Assay [1] deals with DNA dC->dU-editing enzyme APOBEC-3A (Homo sapiens, UniProt P31941). In words: APOBEC3A DNA deaminase inhibitors, dose response, biochemical (AID 504722). It counts as functional.
Assay [2] addresses DNA dC->dU-editing enzyme APOBEC-3G (Homo sapiens, UniProt Q9HC16). In words: Dose Response confirmation of small molecule APOBEC3G DNA Deaminase Inhibitors via a fluorescence-based single-stranded DNA deaminase assay. [Related pubchem assays (depositor defined):AID493012, AID493028]. The assay is classed as functional.
Assay [3] addresses FAD-linked sulfhydryl oxidase ALR (Homo sapiens, UniProt P55789). Put plainly: inhibitors of human ALR sulfhydryl oxidase, dose response, biochemical, H2O2 detection, luminescence, cherry-pick (AID 493248).
A further assay deals with Large T antigen (Simian virus 40, UniProt P03070). The assay is classed as functional, Betapolyomavirus macacae.
For assay [4], the target named is Voltage-dependent T-type calcium channel subunit alpha-1H (Homo sapiens, UniProt O95180). Put plainly: Cav3.2 T-type channel inhibitors, cell-based, synthetic library set 1, calcium flux (AID 493022). It counts as functional.
The target of assay [5] is T1, Short transient receptor potential channel 4 (Mus musculus, UniProt Q9QUQ5).
T1 sequence (Q9QUQ5 whole entry): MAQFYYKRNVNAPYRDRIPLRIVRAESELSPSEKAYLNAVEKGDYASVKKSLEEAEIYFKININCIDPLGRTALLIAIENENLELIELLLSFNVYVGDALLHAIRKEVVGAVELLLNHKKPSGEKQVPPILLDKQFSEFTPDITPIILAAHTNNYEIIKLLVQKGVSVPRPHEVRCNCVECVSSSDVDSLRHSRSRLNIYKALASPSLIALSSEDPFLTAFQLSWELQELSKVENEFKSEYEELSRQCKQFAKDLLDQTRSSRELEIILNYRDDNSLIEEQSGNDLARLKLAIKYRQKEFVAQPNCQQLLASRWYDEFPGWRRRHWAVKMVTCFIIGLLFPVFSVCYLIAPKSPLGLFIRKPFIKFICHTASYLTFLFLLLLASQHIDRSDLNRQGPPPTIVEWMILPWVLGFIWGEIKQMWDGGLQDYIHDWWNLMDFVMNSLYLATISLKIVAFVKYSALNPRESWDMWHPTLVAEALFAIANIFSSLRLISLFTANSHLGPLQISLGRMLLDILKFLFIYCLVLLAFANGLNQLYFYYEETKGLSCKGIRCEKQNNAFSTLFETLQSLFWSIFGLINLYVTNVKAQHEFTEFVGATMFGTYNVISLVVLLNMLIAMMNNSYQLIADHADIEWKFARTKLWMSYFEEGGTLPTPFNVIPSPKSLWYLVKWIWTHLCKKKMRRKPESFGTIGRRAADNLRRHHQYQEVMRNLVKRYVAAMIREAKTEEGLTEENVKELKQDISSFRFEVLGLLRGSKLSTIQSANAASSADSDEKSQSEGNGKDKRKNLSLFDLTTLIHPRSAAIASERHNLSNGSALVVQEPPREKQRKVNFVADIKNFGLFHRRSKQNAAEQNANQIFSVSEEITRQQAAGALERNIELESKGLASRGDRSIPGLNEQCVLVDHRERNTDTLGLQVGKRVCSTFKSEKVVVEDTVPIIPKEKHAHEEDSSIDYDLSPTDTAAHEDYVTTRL
In words: TRPC4 positive allosteric modulators, dose response, cell-based, HEK293 TRPC4/mu-opioid, Fluo-4 calcium, EC20 DAMGO (AID 434941).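 Further: HEK293 cells coexpressing TRPC4 and mu opioid receptor stimulated by EC20 DAMGO.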 It counts as functional.

Assay [6] concerns the target T2, Tyrosine-protein phosphatase non-receptor type 22 (Homo sapiens, UniProt Q9Y2R2).
T2 sequence (Q9Y2R2 whole entry): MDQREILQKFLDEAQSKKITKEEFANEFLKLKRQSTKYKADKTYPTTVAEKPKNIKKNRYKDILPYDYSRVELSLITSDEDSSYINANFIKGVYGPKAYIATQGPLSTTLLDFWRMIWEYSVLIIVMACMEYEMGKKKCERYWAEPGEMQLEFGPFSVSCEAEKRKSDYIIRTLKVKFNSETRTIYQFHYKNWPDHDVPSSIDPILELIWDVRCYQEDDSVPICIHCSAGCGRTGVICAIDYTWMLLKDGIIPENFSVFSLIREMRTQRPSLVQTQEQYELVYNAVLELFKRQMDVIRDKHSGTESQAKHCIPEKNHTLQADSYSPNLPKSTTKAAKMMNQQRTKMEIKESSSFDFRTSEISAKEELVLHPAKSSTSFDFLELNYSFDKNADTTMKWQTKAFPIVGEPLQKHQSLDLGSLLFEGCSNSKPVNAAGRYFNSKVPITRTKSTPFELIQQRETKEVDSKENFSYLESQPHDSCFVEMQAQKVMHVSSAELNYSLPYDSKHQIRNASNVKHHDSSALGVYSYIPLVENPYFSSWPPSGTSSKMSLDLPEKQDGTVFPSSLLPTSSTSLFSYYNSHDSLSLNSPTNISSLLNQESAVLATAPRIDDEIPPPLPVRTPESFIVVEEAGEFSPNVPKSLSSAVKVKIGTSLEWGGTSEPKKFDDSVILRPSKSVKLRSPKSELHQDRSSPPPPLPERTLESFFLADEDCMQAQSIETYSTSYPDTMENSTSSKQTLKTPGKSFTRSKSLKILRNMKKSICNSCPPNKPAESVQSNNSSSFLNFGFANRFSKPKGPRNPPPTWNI
It counts as functional.

Assay [7] addresses Eukaryotic translation initiation factor 4E (Mus musculus, UniProt P63073). In words: eIF4E–eIF4G protein interaction inhibitors, dose response, biochemical, TR-FRET (AID 855).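 Further: potency for disrupting eIF4E binding to eIF4GI seen as loss of FRET.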 The assay is classed as functional.
Assay [8] has as its target T2, Tyrosine-protein phosphatase non-receptor type 22. Put plainly: inhibitors of LYP phosphatase, biochemical, fluorescence intensity, uHTS (AID 1779).
Assay [9] has as its target T3, Tyrosine-protein phosphatase non-receptor type 7 (Homo sapiens, UniProt P35236).
T3 sequence (P35236 whole entry): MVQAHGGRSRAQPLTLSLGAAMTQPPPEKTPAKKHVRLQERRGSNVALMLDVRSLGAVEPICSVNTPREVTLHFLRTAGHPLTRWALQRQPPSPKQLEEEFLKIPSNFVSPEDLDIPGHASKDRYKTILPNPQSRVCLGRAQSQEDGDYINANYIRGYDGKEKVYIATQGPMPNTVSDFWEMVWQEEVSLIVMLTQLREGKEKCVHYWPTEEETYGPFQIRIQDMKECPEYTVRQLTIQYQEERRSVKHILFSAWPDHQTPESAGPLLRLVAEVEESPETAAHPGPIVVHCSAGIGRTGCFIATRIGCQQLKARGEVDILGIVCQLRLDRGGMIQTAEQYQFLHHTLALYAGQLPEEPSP
It counts as functional.

Assay [10] addresses T2, Tyrosine-protein phosphatase non-receptor type 22. The assay is classed as functional. This is another data set of the same source.
The target in assay [11] is T4, Voltage-gated N-type calcium channel alpha-1B subunit/Amyloid beta A4 precursor protein-binding family A member 1 (Homo sapiens, UniProt Q00975+Q02410). The assay is classed as protein assay.
T4 sequence (Q00975 whole entry, the tested form may be a part): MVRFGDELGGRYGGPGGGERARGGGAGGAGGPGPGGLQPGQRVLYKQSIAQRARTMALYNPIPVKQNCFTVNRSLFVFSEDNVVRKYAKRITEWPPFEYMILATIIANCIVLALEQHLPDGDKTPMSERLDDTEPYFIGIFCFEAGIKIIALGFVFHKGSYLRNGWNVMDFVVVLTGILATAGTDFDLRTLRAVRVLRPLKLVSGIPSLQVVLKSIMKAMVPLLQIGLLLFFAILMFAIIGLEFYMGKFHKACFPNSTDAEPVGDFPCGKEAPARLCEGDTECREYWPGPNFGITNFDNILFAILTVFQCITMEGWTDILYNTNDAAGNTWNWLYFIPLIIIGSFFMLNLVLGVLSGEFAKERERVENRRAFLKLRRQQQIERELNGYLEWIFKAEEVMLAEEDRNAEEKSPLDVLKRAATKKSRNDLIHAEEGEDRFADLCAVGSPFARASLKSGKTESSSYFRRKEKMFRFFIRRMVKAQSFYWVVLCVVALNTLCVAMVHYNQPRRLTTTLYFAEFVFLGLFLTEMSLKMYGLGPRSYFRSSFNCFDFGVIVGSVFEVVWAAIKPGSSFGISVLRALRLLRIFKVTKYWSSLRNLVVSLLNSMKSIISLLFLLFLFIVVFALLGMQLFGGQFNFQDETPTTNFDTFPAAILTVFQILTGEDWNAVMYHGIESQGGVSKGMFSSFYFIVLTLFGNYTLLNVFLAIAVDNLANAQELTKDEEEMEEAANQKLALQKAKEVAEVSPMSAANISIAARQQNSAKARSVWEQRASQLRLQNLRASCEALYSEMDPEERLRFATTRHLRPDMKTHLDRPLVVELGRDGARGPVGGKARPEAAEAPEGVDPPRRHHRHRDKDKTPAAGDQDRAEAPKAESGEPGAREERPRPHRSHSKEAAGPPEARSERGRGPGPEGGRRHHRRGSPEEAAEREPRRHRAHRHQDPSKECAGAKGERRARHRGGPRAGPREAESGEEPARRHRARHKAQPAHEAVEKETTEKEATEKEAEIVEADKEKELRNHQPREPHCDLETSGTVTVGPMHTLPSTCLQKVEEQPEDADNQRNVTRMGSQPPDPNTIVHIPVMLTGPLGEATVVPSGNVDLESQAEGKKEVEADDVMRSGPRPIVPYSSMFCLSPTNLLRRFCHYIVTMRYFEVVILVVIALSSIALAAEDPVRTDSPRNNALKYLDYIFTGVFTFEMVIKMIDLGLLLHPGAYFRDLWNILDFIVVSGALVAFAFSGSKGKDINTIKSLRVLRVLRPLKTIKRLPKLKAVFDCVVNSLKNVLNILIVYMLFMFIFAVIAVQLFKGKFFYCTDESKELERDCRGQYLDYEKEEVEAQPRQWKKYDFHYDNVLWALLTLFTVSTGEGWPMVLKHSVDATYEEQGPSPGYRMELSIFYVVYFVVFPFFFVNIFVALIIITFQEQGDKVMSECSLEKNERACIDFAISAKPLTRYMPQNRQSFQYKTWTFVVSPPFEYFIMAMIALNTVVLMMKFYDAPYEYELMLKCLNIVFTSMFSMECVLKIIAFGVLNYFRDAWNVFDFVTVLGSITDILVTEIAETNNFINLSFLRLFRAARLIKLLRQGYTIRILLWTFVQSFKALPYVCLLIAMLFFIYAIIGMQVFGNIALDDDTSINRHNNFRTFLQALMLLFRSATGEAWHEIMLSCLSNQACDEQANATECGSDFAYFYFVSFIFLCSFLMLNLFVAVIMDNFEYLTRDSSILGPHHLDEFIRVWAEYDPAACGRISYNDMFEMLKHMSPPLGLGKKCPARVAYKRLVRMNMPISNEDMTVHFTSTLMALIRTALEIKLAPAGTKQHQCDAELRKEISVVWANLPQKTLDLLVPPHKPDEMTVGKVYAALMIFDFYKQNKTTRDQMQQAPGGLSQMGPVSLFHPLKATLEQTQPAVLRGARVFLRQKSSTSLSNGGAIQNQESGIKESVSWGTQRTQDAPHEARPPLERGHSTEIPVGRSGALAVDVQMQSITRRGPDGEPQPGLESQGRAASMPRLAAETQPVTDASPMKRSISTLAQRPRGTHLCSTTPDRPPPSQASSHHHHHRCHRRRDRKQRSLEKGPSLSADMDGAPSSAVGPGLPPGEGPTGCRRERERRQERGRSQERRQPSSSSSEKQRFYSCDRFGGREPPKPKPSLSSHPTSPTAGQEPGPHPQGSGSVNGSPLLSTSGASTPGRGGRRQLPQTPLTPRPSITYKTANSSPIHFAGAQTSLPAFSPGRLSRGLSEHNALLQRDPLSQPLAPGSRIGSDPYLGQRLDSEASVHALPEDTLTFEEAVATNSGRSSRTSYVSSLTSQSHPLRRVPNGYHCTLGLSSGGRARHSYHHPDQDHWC
T4 sequence (Q02410 whole entry, the tested form may be a part): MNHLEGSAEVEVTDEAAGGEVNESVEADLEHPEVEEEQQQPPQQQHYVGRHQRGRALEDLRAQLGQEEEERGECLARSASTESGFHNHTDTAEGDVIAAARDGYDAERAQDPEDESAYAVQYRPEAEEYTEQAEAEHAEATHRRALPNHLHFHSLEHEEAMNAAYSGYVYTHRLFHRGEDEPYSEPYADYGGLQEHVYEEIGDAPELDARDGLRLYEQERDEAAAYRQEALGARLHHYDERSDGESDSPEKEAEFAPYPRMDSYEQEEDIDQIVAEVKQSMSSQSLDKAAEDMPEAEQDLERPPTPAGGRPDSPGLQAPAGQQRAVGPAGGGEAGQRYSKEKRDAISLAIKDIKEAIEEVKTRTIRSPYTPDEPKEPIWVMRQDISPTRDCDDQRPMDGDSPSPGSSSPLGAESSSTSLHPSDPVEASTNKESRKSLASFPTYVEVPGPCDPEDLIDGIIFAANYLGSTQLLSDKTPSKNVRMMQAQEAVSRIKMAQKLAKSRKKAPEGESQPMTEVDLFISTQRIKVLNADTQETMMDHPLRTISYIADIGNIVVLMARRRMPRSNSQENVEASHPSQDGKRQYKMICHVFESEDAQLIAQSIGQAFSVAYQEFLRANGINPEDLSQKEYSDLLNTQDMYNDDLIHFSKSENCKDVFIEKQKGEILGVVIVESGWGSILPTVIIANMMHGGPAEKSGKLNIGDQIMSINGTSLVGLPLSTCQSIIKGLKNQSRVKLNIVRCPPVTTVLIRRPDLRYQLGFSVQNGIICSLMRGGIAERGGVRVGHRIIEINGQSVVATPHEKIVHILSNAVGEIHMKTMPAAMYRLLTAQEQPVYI
Assay [12] concerns the target Envelope glycoprotein gp160 (Human immunodeficiency virus 1, UniProt Q6QLK5). In words: inhibitors of HIV fusion peptide binding, primary screen, biochemical, uHTS, fluorescence dequenching (AID 1986).
The target in assay [13] is T4, Voltage-gated N-type calcium channel alpha-1B subunit/Amyloid beta A4 precursor protein-binding family A member 1. It counts as protein assay. The source holds these as a separate data set.
The nature of assay [14]: NIH-3T3 fibroblast cytotoxicity, dose response, cytotoxicity control, cell-based, fluorescence, Alamar Blue, secondary assay (AID 2327).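 Further: NIH-3T3 mouse fibroblasts cultured with fluconazole at 8 µg/mL.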 The assay is classed as functional.
Another assay deals with Nonstructural protein 1 (Influenza A virus, UniProt Q194T2). The assay is classed as functional, Influenza A virus (A/California/07/2009(H1N1)).
Sequence of Nonstructural protein 1 (Q194T2 whole entry): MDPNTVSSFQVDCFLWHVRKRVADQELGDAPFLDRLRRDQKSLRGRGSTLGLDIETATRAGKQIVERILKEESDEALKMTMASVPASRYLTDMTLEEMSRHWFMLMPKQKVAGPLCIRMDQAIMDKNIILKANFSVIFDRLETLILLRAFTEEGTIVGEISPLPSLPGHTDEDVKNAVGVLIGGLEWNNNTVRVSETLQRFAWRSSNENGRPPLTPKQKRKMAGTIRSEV
The target of the next assay is Beta-galactosidase (Escherichia coli, UniProt Q8VNN2). In words: beta-galactosidase enzyme inhibitors and activators, dose response, artefact control for CCR6 antagonist project, biochemical, E. coli enzyme, set 3 (AID 504712). It counts as functional.
Assay [15] can be described thus: growth suppression of beta-catenin-knockout colon cells, dose response, cell-based, HCT116, human colon tumor (AID 1045).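 Further: HCT116 colon tumor cells with beta catenin knocked out; cells exposed to compound for 60 hours.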 The assay is classed as functional.
The nature of assay [16]: C. albicans growth with fluconazole, confirmation, fluorescence, retest (AID 2467). It counts as functional, cell-based.
Assay [17] addresses Luciferin 4-monooxygenase (Photinus pyralis, UniProt P08659). Put plainly: Counter Screen for Luciferase-based Assay Positives. [Related pubchem assays: 620, 618, 411 ].
A short description of assay [18]: microbe, parasite or virus in culture. The assay is classed as functional. The settings on record: Mycobacterium tuberculosis.
Another assay relates to HT-1080. In words: cytotoxicity in HT1080 fibrosarcoma cells, cell-based, fluorescence readout (AID 620). The settings on record: Homo sapiens. The assay is classed as functional.
The nature of assay [19]: cytotoxicity in HPDE-C7 cells, cell-based, fluorescence, HTS (AID 430). The conditions noted are these: Homo sapiens. The assay is classed as functional.
Assay [20] is described as follows: cytotoxicity in KRAS-transformed pancreatic duct cells, primary screen, cell-based, fluorescence, HTS (AID 431).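 Further: cell line used: HPDE-C7K.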 The assay is classed as functional. The conditions noted are these: Homo sapiens.
Assay [21] deals with T5, Ubiquitin-conjugating enzyme E2 N (Homo sapiens, UniProt P61088).
T5 sequence (P61088 whole entry): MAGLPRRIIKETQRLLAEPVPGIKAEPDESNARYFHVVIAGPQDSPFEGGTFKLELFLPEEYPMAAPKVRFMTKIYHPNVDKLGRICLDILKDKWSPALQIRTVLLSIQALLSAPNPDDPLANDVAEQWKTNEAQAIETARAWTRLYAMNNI
It counts as functional.

Assay [22] is described as follows: growth suppression of PTEN-null colon cells, dose response, cell-based, HCT116 PTEN knockout (AID 1047).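 Further: HCT116 colon tumor cells with PTEN knocked out; cells exposed to compound for 60 hours before readout; potency for loss of cell viability measured by luminescence.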 The assay is classed as functional.

Calls of active or inactive are those of the source.

Sequence of Envelope glycoprotein gp160 (Q6QLK5 whole entry, the tested form may be a part): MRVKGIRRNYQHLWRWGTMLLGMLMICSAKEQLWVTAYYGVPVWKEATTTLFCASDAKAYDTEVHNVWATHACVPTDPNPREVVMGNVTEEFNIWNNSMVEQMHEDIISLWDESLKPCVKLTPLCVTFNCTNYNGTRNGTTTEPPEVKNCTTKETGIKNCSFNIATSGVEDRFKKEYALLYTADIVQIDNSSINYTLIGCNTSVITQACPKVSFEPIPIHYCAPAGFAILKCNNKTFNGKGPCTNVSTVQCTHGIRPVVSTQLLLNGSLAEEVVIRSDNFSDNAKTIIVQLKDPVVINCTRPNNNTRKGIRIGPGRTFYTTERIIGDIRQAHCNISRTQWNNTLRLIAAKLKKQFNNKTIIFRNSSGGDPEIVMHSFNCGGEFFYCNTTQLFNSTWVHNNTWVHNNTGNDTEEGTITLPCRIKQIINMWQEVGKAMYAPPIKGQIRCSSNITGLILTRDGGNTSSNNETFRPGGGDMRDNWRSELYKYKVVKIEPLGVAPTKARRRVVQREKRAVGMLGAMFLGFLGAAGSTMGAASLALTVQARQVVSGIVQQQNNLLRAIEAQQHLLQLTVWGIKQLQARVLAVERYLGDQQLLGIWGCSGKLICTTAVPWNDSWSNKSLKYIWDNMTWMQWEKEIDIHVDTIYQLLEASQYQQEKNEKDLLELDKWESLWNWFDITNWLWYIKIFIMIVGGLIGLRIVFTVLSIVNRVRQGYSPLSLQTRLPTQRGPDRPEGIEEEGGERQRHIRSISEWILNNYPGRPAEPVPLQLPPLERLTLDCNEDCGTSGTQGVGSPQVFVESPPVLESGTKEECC
Sequence of Luciferin 4-monooxygenase (P08659 whole entry): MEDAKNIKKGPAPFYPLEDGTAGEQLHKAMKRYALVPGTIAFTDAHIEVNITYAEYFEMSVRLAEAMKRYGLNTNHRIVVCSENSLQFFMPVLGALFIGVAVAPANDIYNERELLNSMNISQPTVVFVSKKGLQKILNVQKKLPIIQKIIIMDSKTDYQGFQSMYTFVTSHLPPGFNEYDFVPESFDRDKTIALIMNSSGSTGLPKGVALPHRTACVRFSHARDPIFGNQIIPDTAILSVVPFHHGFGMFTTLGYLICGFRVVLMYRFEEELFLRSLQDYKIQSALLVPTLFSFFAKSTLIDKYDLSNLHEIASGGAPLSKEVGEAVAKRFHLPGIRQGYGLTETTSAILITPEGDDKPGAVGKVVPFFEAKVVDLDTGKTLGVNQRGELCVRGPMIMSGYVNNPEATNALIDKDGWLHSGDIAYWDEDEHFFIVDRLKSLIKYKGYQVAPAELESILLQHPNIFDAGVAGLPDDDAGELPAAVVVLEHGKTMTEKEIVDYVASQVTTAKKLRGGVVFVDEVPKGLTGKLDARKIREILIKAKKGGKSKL
Sequence of DNA dC->dU-editing enzyme APOBEC-3A (P31941 whole entry): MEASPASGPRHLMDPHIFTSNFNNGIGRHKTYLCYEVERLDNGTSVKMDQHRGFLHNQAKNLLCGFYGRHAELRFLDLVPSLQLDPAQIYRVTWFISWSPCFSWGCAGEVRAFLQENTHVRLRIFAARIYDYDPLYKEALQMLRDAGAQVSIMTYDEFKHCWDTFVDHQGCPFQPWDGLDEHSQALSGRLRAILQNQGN

Regarding `COc1cccc(/C=N/n2c(S)nnc2-c2cc(C)[nH]n2)c1O`, the IC50 in assay [1] was > 100 µM (inactive); in assay [2], 4.07 µM (active); at Large T antigen it was 16 µM (active). Besides, the AC50 in assay [3] was 3.54 µM (active).

With `O=C(COc1ccccc1Cl)Nc1nnc(-c2ccc3c(c2)OCO3)o1`, the concentration for a half-maximal effect (EC50) in assay [4] is 3 µM (active).

As to `Cc1cccc(/C=N/NC(=O)c2cc(Br)ccc2O)n1`, the EC50 in [5] is 4.22 µM (active).

Turning to `CCOc1cc(/C=N/NC(=O)c2ccc(-c3csc(Nc4ccc(C)cc4)n3)cc2)ccc1OCC(=O)O`, the IC50 is 6.63 µM (active) in [6]; 50 µM (inactive) in assay [7]; 8.71 µM (active) in assay [8]; 3.93 µM (active) in assay [9]; 4.68 µM (active) in assay [10]; 11.1 µM (active) in assay [11]. Also, the concentration for half-maximal inhibition (IC50) is 7.29 µM (active) in assay [12] and 49.1 µM (active) in assay [13].

Turning to `CN1CCN(CC(=O)N2CCn3c4c(c5cc(C6CCCCC6)ccc53)CCCC42)CC1` (stereo unspecified), the EC50 in [14] is > 150 µM (inconclusive); in assay [15], 3.56 µM (active); in [16], > 38 µM (not active); in [17], 0.84 µM (active); with HT-1080 it was 14.7 µM (active); in assay [19], 3.48 µM (active). Besides, the concentration giving a half-maximal response (EC50) is 4.39 µM (active) in [20] and 3.99 µM (active) in assay [22]. Besides, the IC50 at Nonstructural protein 1 was 18.9 µM (active); on Beta-galactosidase it was > 66.6 µM (inactive); in assay [21], > 20 µM (inactive). In addition, the CC50 in assay [18] is 6.93 µM (active).
